This is an account of results in patent US8268854B2, “Aza-beta-carbolines and methods of using same” (The UWM Research Foundation, Inc., priority 2008, dated 2012).

Structures can show the parent of a compound that is named as a salt. Where two headings read alike, the source gives them in different places. A value given as a limit tells only on which side of the number the result lay.

In test [1] the target is T1, GABAA receptor α2 subtype with β2 and γ2 subunits (Homo sapiens, UniProt P18507+P47869).
T1 construct: expressed in transfected cells; host or cells: HEKT cell line, transient transfection with Fugene 6
The test is described as follows: Competition binding assay with [3H]flunitrazepam. From the text: (§1) Bound radioactivity is quantified by liquid scintillation counting.

Test [2] deals with T2, GABAA receptor α3 subtype with β2 and γ2 subunits (Homo sapiens, UniProt P18507+P34903).
T2 construct: expressed in transfected cells; host or cells: HEKT cell line, transient transfection with Fugene 6
The test is described as follows: Competition binding assay with [3H]flunitrazepam.
Excerpt: as §1

In test [3] the target is T3, GABAA receptor α5 subtype with β2 and γ2 subunits (Homo sapiens, UniProt P18507+P31644).
T3 construct: expressed in transfected cells; host or cells: HEKT cell line, transient transfection with Fugene 6
The test is described as follows: Competition binding assay with [3H]flunitrazepam.
Excerpt: as §1

Test [4] deals with T4, GABAA receptor α1 subtype with β2 and γ2 subunits (Homo sapiens, UniProt P14867+P18507).
T4 construct: expressed in transfected cells; host or cells: HEKT cell line, transient transfection with Fugene 6
The test can be described thus: Competition binding assay with [3H]flunitrazepam.
Excerpt: as §1

A further test has as its target T5, Dopamine receptor D2 (Homo sapiens, UniProt P14416).
T5 construct: expressed in transfected cells
The test can be described thus: PDSP secondary radioligand binding assay. On the procedure: Primary and secondary radioligand binding assays are performed. In general, the primary assay is run at very high ligand (compound) concentration as a broad screen to determine whether a compound binds to a particular receptor. If greater than 50% inhibition at 10 μM (high concentration of compound) at a particular receptor is determined, a secondary assay is performed on that receptor. Data from the secondary assay is the binding affinity (Ki value).
This assay is used to test binding to receptors such as the serotonin receptors: 5-HT1A, 5-HT1B, 5-HT1D, 5-HT1E, 5-HT2A, 5-HT2B, 5-HT2C, 5-HT3, 5-HT5A, 5-HT6 and 5-HT7. The protocol is adapted from Roth et al. J. Pharmacol. Exp. Ther. 1986, 238, 480-485 and Roth et al. J. Pharmacol. Exp. Ther. 1994, 268, 1403-1410. The assay buffer is Standard Binding Buffer (50 mM Tris-HCl, 10 mM MgCl2, 0.1 mM EDTA, pH 7.4). The membrane fraction source is transiently or stably transfected cell lines (e.g., HEK293, COS, CHO, NIH3T3).
A solution of the compound to be tested is prepared as a 1 mg/mL stock in Standard Binding Buffer or DMSO according to its solubility. A similar stock of a reference compound (positive control) is also prepared.
Radioligand (see Table 41) is diluted to five times the assay concentration (see Table 21) in Standard Binding Buffer. […]
The 250 μL reactions are incubated at room temperature and shielded from light (to prevent photolysis of light-sensitive ligands) for 1.5 hours, then harvested by rapid filtration onto Whatman GF/B glass fiber filters pre-soaked with 0.3% polyethyleneimine using a 96-well Brandel harvester. […] The tubes are capped, labeled, and counted by liquid scintillation counting. For higher throughput assays, bound radioactivity is harvested onto 0.3% polyethyleneimine-treated, 96-well filter mats using a 96-well Filtermate harvester. The filter mats are dried, then scintillant is melted onto the filters, and the radioactivity retained on the filters is counted in a Microbeta scintillation counter. […]

Turning to `CCCOc1cc2c(cn1)[nH]c1ccncc12` [Compound 2, 8-Propoxypyridino[4′,3′-5,4]pyrrolo[3,2-c]pyridine hydrochloride], the Ki is 0.33 nM in test [1] ([3H]flunitrazepam, α2β2γ2, HEKT cells, read-out: GABAA RECEPTOR BINDING α2); 4.04 nM in test [2] ([3H]flunitrazepam, α3β2γ2, HEKT cells, read-out: GABAA RECEPTOR BINDING α3); 12.2 nM in test [3] ([3H]flunitrazepam, α5β2γ2, HEKT cells, read-out: GABAA RECEPTOR BINDING α5); 9.86 nM in test [4] ([3H]flunitrazepam, α1β2γ2, HEKT cells, read-out: GABAA RECEPTOR BINDING α1); greater than 10000 nM on Dopamine receptor D2.
Turning to `CCCOc1cc2c(cn1)[nH]c1cnccc12` [Compound 4, 3-Propoxy pyridino[4′,3′-4,5]pyrrolo[2,3-c]pyridine hydrochloride], the Ki in test [1] was 6.31 nM; in test [2], 1.49 nM; in test [3] it was 43.1 nM; in test [4] it was 5.79 nM; at Dopamine receptor D2, greater than 10000 nM.
